Laboratory results: US11739111B2, “Manufacture of trans-[tetrachlorobis(1H-indazole)ruthenate (III)] and compositions thereof” (Bold Therapeutics, Inc., priority 2017, dated 2023)
Values joined by “and” are separate entries in the source; they are usually repeats but may differ in a detail not shown here. Equal values may be shown once.

Tests used:
Assay type in all cases: physicochemical
[1] = Stability of the isolated cesium intermediate as dry powder; settings: ambient conditions
Text: Another aspect of the invention is the introduction of step S-2 into the preparation of Formula I-b. Step S-2 involves the preparation of a cesium intermediate, Formula I-a. […] As stated above, indazolium trans-[tetrachlorobis(1H-indazole)ruthenate (III)] is isolated by filtration as what can best be described as a mud-like substance. The stability of this compound is improved by the presence of hydrochloric acid (chloride ions). Washing the filtrate with polar solvents (e.g. methanol) also lead to degradation. Therefore, the best practice is to prepare the indazolium trans-[tetrachlorobis(1H-indazole)ruthenate (III)], isolate by filtration, and use directly for S-2 without delay. S-2 consists of mixing indazolium trans-[tetrachlorobis(1H-indazole)ruthenate (III)] and cesium chloride in a suitable solvent. Suitable solvents can be alcohol with 1 to 5 carbon atoms, a diol with 2-4 carbon atoms, water, ketones with […], cyclic ethers containing 4 to 7 carbon atoms, amides with 1 to 4 carbon atoms, DMSO, sulfolane, esters with 4 to 6 carbon atoms, chlorinated hydrocarbons with 1 or 2 carbon atoms, liquid aromatic hydrocarbons, nitriles with 2-6 carbon atoms, or mixture of thereof.

[2] = Stability of Formula I-b in chloride-containing solutions versus pure water (aquation to Compound A); settings: sodium chloride or hydrochloric acid solutions compared with pure water
[3] = Solution stability study of IT-139 bulk solution (HPLC peak area over time); settings: for % Peak Area Unspecified: impurities; for % Peak Area RRT 1.09 / % Peak Area RRT 1.28: impurity
Experimental: HPLC Method 1 Assay and identity of sodium trans-[tetrachlorobis(1H-indazole) ruthenate (III)] was determined by high pressure liquid chromatography with UV detection at 292 nm. IT-139 drug product was dissolved in water at concentration of 1 mg/mL, and 10 μL was injected onto an Agilent Zorbax SB-C18 (3 μm, 4.6×150 mm) HPLC column. Mobile phase A consisted of 0.1% trifluoroacetic acid in water and mobile phase B consisted of 0.1% trifluoroacetic acid in acetonitrile. Separation was achieved by gradient flow at 1.0 mL/minute such that mobile phase A constituting from 90% to 10% from time zero to 12 minutes, with mobile phase B constituting from 10% to 90% over 12 minutes. The gradient was then reversed from 10% mobile phase A and 90% mobile phase B to 90% A and 10% B from 12 minutes to 13 minutes. This continued until the end of the run at 15 minutes. The analyte retention time was 7.7 minutes. Sample temperature was maintained at 5° C., and column temperature was maintained at 25° C.
HPLC Method 2 Two HPLC methods are used because two different impurities co-elute using HPLC Method 1. Related substances for IT-139 drug product were determined by high pressure liquid chromatography with UV detection at 292 nm. IT-139 drug product was dissolved in water at concentration of 1 mg/mL, and 10 μL was injected onto an Agilent Zorbax SB-C18 (3 μm, 4.6×150 mm) HPLC column. Mobile phase A consisted of 0.1% trifluoroacetic acid in water and mobile phase B consisted of 0.1% trifluoroacetic acid in acetonitrile. Separation was achieved by gradient flow at 1.0 mL/minute such that mobile phase A constituted from 90% to 10% from time zero to 15 minutes, with mobile phase B constituted from 10% to 90% over 15 minutes. The gradient was held at 10% A and 90% B from 15 minutes to 19.9 minutes. The gradient was then reversed to 90% A and 10% B from 19.9 minutes to 20 minutes, and was held until the end of the run at 26 minutes. Sample temperature was maintained at 5° C., and column temperature was maintained at 25° C.
Compound from Example 5 was prepared at room temperature (20° C.) using room temperature solutions, and refrigerated (2-8° C.) using cold (2-8° C.) solutions, for a total volume of 500 mL for each. Citric acid solution was prepared by dissolving 19.2 grams of citric acid in 1 L of water. Sodium citrate solution was prepared by dissolving 29.4 grams of sodium citrate in 1 L of water. Sodium citrate solution was added to the citric acid solution until the pH was increased from 2.0 to 3.4. Mannitol solution was prepared by dissolving 13.3 g in 200 mL of water. Solutions of Formula I-b were prepared by adding 16.6 mL of citrate buffer to 400 mL water. 3.33 g sodium trans[tetrachlorobis(1H-indazole)ruthenate(III)] was added to the solution and stirred for 10 minutes. 50 mL of mannitol solution was added followed by 33.4 mL of water for a final volume of 500 mL IT-139 bulk solution. The room temperature (18-22° C.) sample was stirred using a magnetic stir plate on the laboratory bench, and the refrigerated sample was stirred using a magnetic stir plate in a refrigerator (2-8° C.). Aliquots of 100 μL were taken from each sample immediately upon dissolution (T=0) and at time points of 0.5, 1, 2, 3, 4, 5, 6, 18, 24, 32, and 48 hours. Each sample was added to 1.9 mL methanol in an HPLC vial and mixed by vortex. […] HPLC chromatograms for IT-139 samples stored refrigerated or at room temperature at the 18 hour time point are shown in FIG. 2 and FIG. 3, respectively.

[4] = 20° C. (room temperature), 0.5 h
[5] = 20° C. (room temperature), 18 h

[Cl][Ru-3]([Cl])([Cl])([Cl])([n+]1cc2ccccc2[nH]1)[n+]1cc2ccccc2[nH]1.[Cs+] [Formula I-a, cesium trans-[tetrachlorobis(1H-indazole)ruthenate (III)]]
stability of the dry powder [1]: stable at ambient conditions

[Cl][Ru-]([Cl])([Cl])[Cl].[Na+].c1ccc2[nH]ncc2c1.c1ccc2[nH]ncc2c1 [Formula I-b, sodium trans-[tetrachlorobis(1H-indazole)ruthenate (III)]]
stability in solution [2]: much more stable
% Peak Area RT 7.7 min ([3]; 4° C. (refrigerated), 0 h): 97.05% and 97.1%
% Peak Area RT 7.7 min ([3]; 4° C. (refrigerated), 0.5 h): 97.3%
% Peak Area RT 7.7 min ([3]; 4° C. (refrigerated), 1 h): 97.0%
% Peak Area RT 7.7 min ([3]; 4° C. (refrigerated), 2 h): 97.0%
% Peak Area RT 7.7 min ([3]; 4° C. (refrigerated), 3 h): 96.8%
% Peak Area RT 7.7 min ([3]; 4° C. (refrigerated), 4 h): 96.5%
% Peak Area RT 7.7 min ([3]; 4° C. (refrigerated), 5 h): 96.6%
% Peak Area RT 7.7 min ([3]; 4° C. (refrigerated), 6 h): 96.8%
% Peak Area RT 7.7 min ([3]; 4° C. (refrigerated), 18 h): 95.4%
% Peak Area RT 7.7 min ([3]; 4° C. (refrigerated), 24 h): 94.8%
% Peak Area RT 7.7 min ([3]; 4° C. (refrigerated), 32 h): 94.9%
% Peak Area RT 7.7 min ([3]; 4° C. (refrigerated), 48 h): 89.8%
% Peak Area RT 7.7 min ([3]; 20° C. (room temperature), 0 h): 96.8%
% Peak Area RT 7.7 min [3, 4]: 96.8%
% Peak Area RT 7.7 min ([3]; 20° C. (room temperature), 1 h): 96.5%
% Peak Area RT 7.7 min ([3]; 20° C. (room temperature), 2 h): 96.3%
% Peak Area RT 7.7 min ([3]; 20° C. (room temperature), 3 h): 95.9%
% Peak Area RT 7.7 min ([3]; 20° C. (room temperature), 4 h): 95.4%
% Peak Area RT 7.7 min ([3]; 20° C. (room temperature), 5 h): 94.9%
% Peak Area RT 7.7 min ([3]; 20° C. (room temperature), 6 h): 94.0%
% Peak Area RT 7.7 min [3, 5]: 12.1%
% Peak Area Unspecified ([3]; 4° C. (refrigerated), 0 h): <0.1%
% Peak Area Unspecified ([3]; 4° C. (refrigerated), 0.5 h): <0.1%
% Peak Area Unspecified ([3]; 4° C. (refrigerated), 1 h): <0.1%
% Peak Area Unspecified ([3]; 4° C. (refrigerated), 2 h): 0.14%
% Peak Area Unspecified ([3]; 4° C. (refrigerated), 3 h): 0.16%
% Peak Area Unspecified ([3]; 4° C. (refrigerated), 4 h): 0.26%
% Peak Area Unspecified ([3]; 4° C. (refrigerated), 5 h): <0.1%
% Peak Area Unspecified ([3]; 4° C. (refrigerated), 6 h): <0.1%
% Peak Area Unspecified ([3]; 4° C. (refrigerated), 18 h): 0.11%
% Peak Area Unspecified ([3]; 4° C. (refrigerated), 24 h): <0.1%
% Peak Area Unspecified ([3]; 4° C. (refrigerated), 32 h): <0.1%
% Peak Area Unspecified ([3]; 4° C. (refrigerated), 48 h): <0.1%
% Peak Area Unspecified ([3]; 20° C. (room temperature), 0 h): <0.1%
% Peak Area Unspecified [3, 4]: <0.1%
% Peak Area Unspecified ([3]; 20° C. (room temperature), 1 h): <0.1%
% Peak Area Unspecified ([3]; 20° C. (room temperature), 2 h): 0.13%
% Peak Area Unspecified ([3]; 20° C. (room temperature), 3 h): 0.16%
% Peak Area Unspecified ([3]; 20° C. (room temperature), 4 h): 0.25%
% Peak Area Unspecified ([3]; 20° C. (room temperature), 5 h): 0.26%
% Peak Area Unspecified ([3]; 20° C. (room temperature), 6 h): 0.13%
% Peak Area Unspecified [3, 5]: 1.82%
% Peak Area RRT 1.09 ([3]; 4° C. (refrigerated), 0 h): 0.96%
% Peak Area RRT 1.28 ([3]; 4° C. (refrigerated), 0 h): 1.91%
% Peak Area RRT 1.09 ([3]; 4° C. (refrigerated), 0.5 h): 0.96%
% Peak Area RRT 1.28 ([3]; 4° C. (refrigerated), 0.5 h): 1.7%
% Peak Area RRT 1.09 ([3]; 4° C. (refrigerated), 1 h): 1.03%
% Peak Area RRT 1.28 ([3]; 4° C. (refrigerated), 1 h): 1.9%
% Peak Area RRT 1.09 ([3]; 4° C. (refrigerated), 2 h): 1.04%
% Peak Area RRT 1.28 ([3]; 4° C. (refrigerated), 2 h): 1.86%
% Peak Area RRT 1.09 ([3]; 4° C. (refrigerated), 3 h): 1.07%
% Peak Area RRT 1.28 ([3]; 4° C. (refrigerated), 3 h): 0.94%
% Peak Area RRT 1.09 ([3]; 4° C. (refrigerated), 4 h): 1.13%
% Peak Area RRT 1.28 ([3]; 4° C. (refrigerated), 4 h): 2.14%
% Peak Area RRT 1.09 ([3]; 4° C. (refrigerated), 5 h): 1.11%
% Peak Area RRT 1.28 ([3]; 4° C. (refrigerated), 5 h): 2.2%
% Peak Area RRT 1.09 ([3]; 4° C. (refrigerated), 6 h): 1.09%
% Peak Area RRT 1.28 ([3]; 4° C. (refrigerated), 6 h): 2.07%
% Peak Area RRT 1.09 ([3]; 4° C. (refrigerated), 18 h): 1.45%
% Peak Area RRT 1.28 ([3]; 4° C. (refrigerated), 18 h): 3.07%
% Peak Area RRT 1.09 ([3]; 4° C. (refrigerated), 24 h): 1.34%
% Peak Area RRT 1.28 ([3]; 4° C. (refrigerated), 24 h): 3.76%
% Peak Area RRT 1.09 ([3]; 4° C. (refrigerated), 32 h): 1.33%
% Peak Area RRT 1.28 ([3]; 4° C. (refrigerated), 32 h): 3.65%
% Peak Area RRT 1.09 ([3]; 4° C. (refrigerated), 48 h): 2.39%
% Peak Area RRT 1.28 ([3]; 4° C. (refrigerated), 48 h): 7.56%
% Peak Area RRT 1.09 ([3]; 20° C. (room temperature), 0 h): 0.88%
% Peak Area RRT 1.28 ([3]; 20° C. (room temperature), 0 h): 2.26%
% Peak Area RRT 1.09 [3, 4]: 1.08%
% Peak Area RRT 1.28 [3, 4]: 2.07%
% Peak Area RRT 1.09 ([3]; 20° C. (room temperature), 1 h): 1.14%
% Peak Area RRT 1.28 ([3]; 20° C. (room temperature), 1 h): 2.28%
% Peak Area RRT 1.09 ([3]; 20° C. (room temperature), 2 h): 1.22%
% Peak Area RRT 1.28 ([3]; 20° C. (room temperature), 2 h): 2.34%
% Peak Area RRT 1.09 ([3]; 20° C. (room temperature), 3 h): 1.35%
% Peak Area RRT 1.28 ([3]; 20° C. (room temperature), 3 h): 2.55%
% Peak Area RRT 1.09 ([3]; 20° C. (room temperature), 4 h): 1.47%
% Peak Area RRT 1.28 ([3]; 20° C. (room temperature), 4 h): 2.89%
% Peak Area RRT 1.09 ([3]; 20° C. (room temperature), 5 h): 1.58%
% Peak Area RRT 1.28 ([3]; 20° C. (room temperature), 5 h): 3.27%
% Peak Area RRT 1.09 ([3]; 20° C. (room temperature), 6 h): 1.88%
% Peak Area RRT 1.28 ([3]; 20° C. (room temperature), 6 h): 4%
% Peak Area RRT 1.09 [3, 5]: 25.2%
% Peak Area RRT 1.28 [3, 5]: 60.87%
